From US10227331B2 (priority 2015, dated 2019)

Experiments:
[1] = tested on: Escherichia coli expressing NDM-1 (CLB30005, CLB30016); assay type: cell-based; conditions: with imipenem 1 μg/ml, 95% inhibition of bacterial growth; for Escherichia coli MITC95: NDM-1 (CLB30016)
Summary of the method: (§1)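 Restoration of imipenem susceptibility (1 μg/ml imipenem) was judged by absorbance after 22–24 h at 35° C. Test compound was added to bacteria suspended 1:100 in 1.1× CAMHB from overnight blood-agar cultures.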

[2] = tested on: Serratia marcescens expressing IMP-1 (CL5741); assay type: cell-based; conditions: with imipenem 1 μg/ml, 95% inhibition of bacterial growth; for Serratia marcescens MITC95: IMP-1 (CL5741)
Summary of the method: as §1

[3] = tested on: Klebsiella pneumoniae expressing VIM-1 (IHMA599644); assay type: cell-based; conditions: with imipenem 1 μg/ml, 95% inhibition of bacterial growth; for Klebsiella pneumoniae MITC95: VIM-1 (IHMA599644)
Summary of the method: as §1

NDM-1 = NDM-1 (Klebsiella pneumoniae, UniProt C7C422); assay: biochemical; assay type: biochemical; conditions: CCF2-FA substrate, 2 hours at 25° C; read-out: NDM-1 IC50
NDM-1, sequence (C7C422 whole entry, looked up, species assumed): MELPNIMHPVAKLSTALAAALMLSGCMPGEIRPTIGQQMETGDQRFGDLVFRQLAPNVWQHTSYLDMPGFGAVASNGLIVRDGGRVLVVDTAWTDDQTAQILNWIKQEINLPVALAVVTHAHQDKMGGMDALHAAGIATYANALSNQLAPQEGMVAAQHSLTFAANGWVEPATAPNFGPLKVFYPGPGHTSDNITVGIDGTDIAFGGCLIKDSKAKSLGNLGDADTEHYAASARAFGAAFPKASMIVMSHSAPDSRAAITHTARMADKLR
Procedure: (§2) Enzyme Activity: Determination of IC50
(§3) The Class B enzyme activities were measured in the presence of the test inhibitor in a fluorescence assay against a commercially available substrate consisting of a cephalosporin core linking 7-hydroxycoumarin to fluorescein (CCF2-FA). […] In a 384-well microplate, the test inhibitor was incubated with the metallo-β-lactamase enzyme and the substrate for 2 hours at 25° C. […] The IC50 value was determined from semi-logarithmic plots of enzyme inhibition versus inhibitor concentration, with a curve generated using a 4-parameter fit.

IMP-1 = IMP-1 (Serratia marcescens, UniProt P52699); assay: biochemical; assay type: biochemical; conditions: CCF2-FA substrate, 2 hours at 25° C; read-out: IMP-1 IC50
IMP-1, sequence (P52699 whole entry, looked up, species assumed): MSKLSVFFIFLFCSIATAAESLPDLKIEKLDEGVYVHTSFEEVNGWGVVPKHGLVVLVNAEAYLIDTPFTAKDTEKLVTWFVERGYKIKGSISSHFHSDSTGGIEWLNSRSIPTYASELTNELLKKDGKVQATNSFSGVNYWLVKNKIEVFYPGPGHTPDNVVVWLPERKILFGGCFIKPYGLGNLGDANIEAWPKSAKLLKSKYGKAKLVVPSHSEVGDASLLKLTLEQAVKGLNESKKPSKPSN
Procedure: as §2, §3

[4] = tested on: P. aeruginosa expressing IMP-1, efflux+ (MB9798); assay type: cell-based, Pseudomonas aeruginosa; conditions: for P. aeruginosa expressing IMP-1, efflux+ (MB9798) MITC95: imipenem at 2 μg/mL, in the presence of a class A, C, D serine β-lactamase inhibitor closely related to relebactam; for Efflux ratio: ratio MITC95 PA_9798/MITC95 PA_9799
Excerpt: (§4) The strain background is Pseudomonas aeruginosa PAO1.

VIM-1 = VIM-1 (Pseudomonas aeruginosa (strain ATCC 15692 / DSM 22644 / CIP 104116 / JCM 14847 / LMG 12228 / 1C / PRS 101 / PAO1), UniProt A0A0F7KYQ8); assay: biochemical; conditions: CCF2-FA substrate, 2 hours at 25° C
Summary of the method: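 Semi-log dose-response curves, fitted with a 4-parameter model, gave IC50s. The underlying signal was CCF2-FA fluorescence following 2 hours at 25° C with enzyme, substrate and inhibitor combined.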

[5] = tested on: P. aeruginosa expressing IMP-1, efflux− (MB9799); assay: Efflux: concentration of MBL inhibitor which restores susceptibility to imipenem; assay type: cell-based, Pseudomonas aeruginosa; conditions: imipenem at 2 μg/mL, in the presence of a class A, C, D serine β-lactamase inhibitor closely related to relebactam
Excerpt: as §4

Row | Compound | Escherichia coli MITC95 [1] [µM] | Serratia marcescens MITC95 [2] [µM] | Klebsiella pneumoniae MITC95 [3] [µM] | IC50 (NDM-1) [nM] | IC50 (IMP-1) [nM] | P. aeruginosa expressing IMP-1, efflux+ (MB9798) MITC95 [4] [µM] | Efflux ratio [4] | IC50 (VIM-1) [nM] | P. aeruginosa expressing IMP-1, efflux− (MB9799) MITC95 [5] [µM] | Escherichia coli expressing NDM-1 (CLB30016) MITC95 [1] [µM] | Serratia marcescens expressing IMP-1 (CL5741) MITC95 [2] [µM] | Klebsiella pneumoniae expressing VIM-1 (IHMA599644) MITC95 [3] [µM]
1 | C[C@@H](N)CS(=O)(=O)c1ccc(-c2cccc3[nH]c(N)nc23)c(-c2nn[nH]n2)c1S(N)(=O)=O [Example 267, 3-(2-amino-1H-benzo[d]imidazol-4-yl)-6-((R)-2-aminopropylsulfonyl)-2-(2H-tetrazol-5-yl)benzenesulfonamide] | 0.3906 | 0.7813 | 1.563 | 0.213 | 0.964 | 0.7813 | 1.00 | 0.517 | 0.7813 | – | – | –
2 | Cc1nc2c(-c3ccc(S(=O)(=O)CCN)c(S(N)(=O)=O)c3-c3nn[nH]n3)cccc2[nH]1 [Example 331, 6-((2-aminoethyl)sulfonyl)-3-(2-methyl-1H-benzo[d]imidazol-4-yl)-2-(2H-tetrazol-5-yl) benzenesulfonamide] | 3.125 | 1.563 | 6.25 | 0.165 | 0.302 | 1.563 | 1.00 | 0.183 | 1.563 | – | – | –
3 | NCCS(=O)(=O)c1ccc(-c2cccc3[nH]c(CN)nc23)c(-c2nn[nH]n2)c1S(N)(=O)=O [Example 305, 6-((2-aminoethyl)sulfonyl)-3-(2-(aminomethyl)-1H-benzo[d]imidazol-4-yl)-2-(2H-tetrazol-5-yl)benzenesulfonamide] | 1.563 | 0.7813 | 1.563 | 0.643 | 1.91 | 1.563 | 2.00 | 0.493 | 0.7813 | – | – | –
4 | Nc1ccc2cccc(-c3ccc(S(=O)(=O)C4CNC4)c(S(N)(=O)=O)c3-c3nn[nH]n3)c2n1 [Example 36, 3-(2-aminoquinolin-8-yl)-6-(azetidin-3-ylsulfonyl)-2-(2H-tetrazol-5-yl)benzenesulfonamide] | – | – | – | 0.104 | 0.357 | 0.7813 | 1.00 | 0.282 | 0.7813 | 3.125 | 0.7813 | 1.563
5 | NC[C@@H](N)CS(=O)(=O)c1ccc(-c2ccc(N)nc2)c(-c2nn[nH]n2)c1S(N)(=O)=O [Example 371, (R)-3-(6-aminopyridin-3-yl)-6-((2,3-diaminopropyl)sulfonyl)-2-(2H-tetrazol-5-yl) benzenesulfonamide] | 1.563 | 1.563 | 3.125 | 1.16 | 1.38 | 3.125 | 2.00 | 1.08 | 1.563 | – | – | –
6 | NCCS(=O)(=O)c1ccc(-c2ccnc3ccccc23)c(-c2nnn[nH]2)c1S(N)(=O)=O.O=C(O)C(F)(F)F [Example 138, 2-((4-(quinolin-4-yl)-2-sulfamoyl-3-(1H-tetrazol-5-yl)phenyl)sulfonyl)ethanaminium 2,2,2-trifluoroacetate] | – | – | – | 0.8 | 1.28 | 6.25 | 4.00 | 0.41 | 1.563 | 1.563 | 3.125 | 6.25
7 | Nc1ccc(-c2ccc([S+]([O-])C3CCNCC3)c(S(N)(=O)=O)c2-c2nn[nH]n2)cn1 (stereo not drawn) [Example 10, 3-(6-aminopyridin-3-yl)-6-(piperidin-4-ylsulfinyl)-2-(2H-tetrazol-5-yl)benzenesulfonamide] | – | – | – | 3.2 | 27.3 | 6.25 | 2.00 | 6.46 | 3.125 | 6.25 | 6.25 | 6.25
8 | NCCS(=O)(=O)c1ccc(-c2cnc(N)c(C(=O)N[C@H]3CCNC3)c2)c(-c2nn[nH]n2)c1S(N)(=O)=O [Example 336, (S)-2-Amino-5-(4-((2-aminoethyl)sulfonyl)-3-sulfamoyl-2-(2H-tetrazol-5-yl)phenyl)-N-(pyrrolidin-3-yl)nicotinamide] | 0.7813 | 1.563 | 3.125 | 6.3 | 9.51 | 12.5 | 8.00 | 3.57 | 1.563 | – | – | –
9 | Nc1nc2cc(C(F)(F)F)cc(-c3ccc(S(=O)(=O)C4CNC4)c(S(N)(=O)=O)c3-c3nnn[nH]3)c2[nH]1 [Example 260, 3-(2-amino-5-(trifluoromethyl)-1H-benzo[d]imidazol-7-yl)-6-(azetidin-3-ylsulfonyl)-2-(1H-tetrazol-5-yl)benzenesulfonamide] | 6.25 | 6.25 | 12.5 | 0.598 | 1.99 | 6.25 | 1.00 | 0.813 | 6.25 | – | – | –
10 | NC(=O)c1nc2c(-c3ccc(S(=O)(=O)C4CNC4)c(S(N)(=O)=O)c3-c3nn[nH]n3)cccc2[nH]1 [Example 254, 4-(4-(Azetidin-3-ylsulfonyl)-3-sulfamoyl-2-(2H-tetrazol-5-yl)phenyl)-1H-benzo[d]imidazole-2-carboxamide] | 1.563 | 3.125 | 6.25 | 0.0825 | 0.748 | 3.125 | 2.00 | 0.218 | 1.563 | – | – | –
11 | NCCS(=O)(=O)c1ccc(-c2ccc3nncn3c2)c(-c2nnn[nH]2)c1S(N)(=O)=O.O=C(O)C(F)(F)F [Example 146, 2-((4-([1,2,4]triazolo[4,3-a]pyridin-6-yl)-2-sulfamoyl-3-(1H-tetrazol-5-yl)phenyl)sulfonyl)ethanaminium 2,2,2-trifluoroacetate] | – | – | – | 20.6 | 44.4 | 100 | 63.98 | 1.32 | 1.563 | 0.7813 | 3.125 | 6.25
12 | NC[C@@H](O)CS(=O)(=O)c1ccc(-c2ccc(N)nc2)c(-c2nn[nH]n2)c1S(N)(=O)=O [Example 364, (R)-6-((3-amino-2-hydroxypropyl)sulfonyl)-3-(6-aminopyridin-3-yl)-2-(2H-tetrazol-5-yl) benzenesulfonamide] | 0.3418 | 0.9766 | 1.563 | 0.795 | 0.486 | 0.7813 | 1.00 | 0.875 | 0.7813 | – | – | –
13 | Nc1nc2c(-c3ccc(S(=O)(=O)[C@H]4CN[C@H](CO)C4)c(S(N)(=O)=O)c3-c3nn[nH]n3)cccc2[nH]1 [Example 291, 3-(2-amino-1H-benzo[d]imidazol-4-yl)-6-((3R,5S)-5-(hydroxymethyl)pyrrolidin-3-ylsulfonyl)-2-(2H-tetrazol-5-yl)benzenesulfonamide] | 0.7813 | 0.7813 | 1.563 | 0.195 | 0.959 | 0.7813 | 1.00 | 0.54 | 0.7813 | – | – | –
